Measured values: patent US8188053B2, “Anti-inflammatory peptides” (The University of Manchester, priority 2005, dated 2012)
Entries after “also recorded” stand apart in the source; their conditions may differ.

B1: hTRX: Recombinant human thioredoxin (SEQ ID NO. 14), from which the peptides of the invention are derived (protein, listed as Homo sapiens)
chain: MVKQIESKTAFQEALDAAGDKLVVVDFSATWCGPCKMIKPFFHSLSEKYSNVIFLEVDVDDCQDVASECEVKCMPTFQFFKKGQKVGEFSGANKEKLEATINELV

Experiments:
Assay type in all cases: in vivo
[1] = tested on: allergen (oxazolone) induced Langerhans Cell (LC) migration; test: allergen (oxazolone) induced Langerhans Cell (LC) migration after prior topical application of peptide; conditions: for inhibition of allergen-induced LC migration: prior topical exposure to peptide, subsequent oxazolone at the same site; for biological activity (epidermal LC migration), equimolar comparison: equimolar doses (1.38 μM): 0.5 μg hTRX, 0.04 μg 9-mer, 0.025 μg KMIKP, 0.016 μg CGPC
Procedure: Various tissue studies are conducted to examine the effect of each of the aforementioned polypeptides on allergen (oxazolone) induced Langerhans Cell (LC) migration. Applications are in μg unless otherwise stated.
The purpose of this experiment is to determine whether topical application of peptide 1 is able to influence the integrity of LC migration induced by subsequent exposure at the same site to oxazolone, a potent contact allergen known to cause the mobilization of LC. The results of a representative experiment are illustrated in FIG. 1.
The purpose of this experiment is to determine whether topical application of peptide 3 is able to influence the integrity of LC migration induced by subsequent exposure at the same site to oxazolone. The results of three independent experiments are illustrated in FIG. 2. […] The conclusion drawn is that topically applied peptide 3 is able to inhibit one or more biological processes required for the effective mobilization and migration of LC in response to a stimulus, in this instance the contact allergen oxazolone.

[2] = tested on: Langerhans Cell migration induced by TNF-α; test: Langerhans Cell migration induced by intradermal injection of homologous TNF-α after prior topical peptide; conditions: prior topical exposure; intradermal (id) injection of homologous TNF-α
Source text: (§1) The purpose of this experiment is to investigate whether the 9-mer peptide (CGPCKMIKP; SEQ ID NO: 9) could affect Langerhans Cell migration induced by either IL-1β or TNF-α. The results of a representative experiment are illustrated in FIG. 9. […] The interpretation is that topical administration of the 9-mer peptide is associated with a perturbation of IL-1β function.

[3] = tested on: Langerhans Cell migration induced by IL-1β; test: Langerhans Cell migration provoked by intradermal administration of homologous IL-1β after prior topical peptide; conditions: prior topical exposure; id administration of homologous IL-1β
Source text: as §1

Molecule	inhibition of allergen-induced LC migration [1]	biological activity (epidermal LC migration), equimolar comparison [1]	further results
AGPAKMIKP [cysteine free 9-mer peptide]	active	–	–
ANKEKLEATINELV [peptide 7]	does not inhibit	–	–
CGPC [reference compound]	–	all but the CGPC (SEQ ID NO: 22) peptide appear to exhibit biological activity	–
CGPCKMIKP [9-mer peptide]	activity of the 9-mer peptide at all doses tested; also recorded: active	appear to exhibit biological activity	inhibition of allergen-induced LC migration ([1]; listed as 9-mer): active; inhibition of Langerhans Cell migration induced by TNF-α [2]: almost complete inhibition; influence on Langerhans Cell migration provoked by IL-1β [3]: without influence
CGPCKMIKPFFHSLSEKYSN [peptide 3]	some indication for a dose-related inhibition; also recorded: substantial inhibition; also recorded: active	–	inhibition of allergen-induced LC migration at the highest concentration tested ([1]; highest concentration (0.5 μg) tested, three independent experiments, oxazolone): complete (or near complete) inhibition; variation in activity between peptide synthesis batches ([1]; two independent preparations of peptide 3, oxazolone-induced LC migration): only a small variation in activity
IPCMPKCKG [scrambled 9-mer, reference compound]	not biologically active	–	–
KMIKP	–	appear to exhibit biological activity	–
KMIMP	active	–	–
SATYCGPCKMIKP [peptide RV-1]	does inhibit; also recorded: active	–	–
VKQIESKTAFQEALDAAGDK [peptide 1]	does not inhibit	–	–
B1	–	appear to exhibit biological activity	–
